In patent publication US20240108725A1, “METHOD FOR TREATING CANCER AND SYSTEM FOR SAME” (OTSUKA MEDICAL DEVICES CO., LTD, priority 2020, published 2024):
Structures can show the parent of a compound that is named as a salt.

Key:
C6 cells [1] = assay: Rate of dead cells in PDT-treated or anti-cancer agent-treated C6 cells (Annexin V/PI), Example 2; type: cell-based, rat; settings: C6 cells cultured 48 hours with MTX 20 μg/mL, DOX 75 μg/mL or EPI 62.5 μg/mL
Experimental: C6 cells were cultured in 2.5% FBS/F-12K medium supplemented with 5-ALA to a final concentration of 1 mM in a 5% CO2 incubator at 37° C. for 24 hours. After the culture, the cells were removed with 0.25% trypsin-EDTA solution, and the collected cells were adjusted to 2×10^7 cells/mL with PBS. The cell suspension thus prepared was injected into a Tygon tube (inner diameter: 0.79 mm), wrapped around a light irradiator (Otsuka Electronics Co., Ltd.), and irradiated with light having a wavelength of 630 nm and an irradiation energy density of 7.5 J/cm^2 (illuminance of 124.5 mW/cm^2 for 1 minute). The treated cells were pooled and the irradiation was repeated until the required dose was obtained. The irradiated cells were divided into three equal parts, and one was administered to F344 rats (8 week-old at the start of study, male, Charles River Laboratories Japan Inc.) at 0.5 mL (1×10^7 cells) per animal from the tail vein under isoflurane anesthesia (PDT iv group, 3 animals). Another one was centrifuged to remove its culture supernatant and adjusted to 2×10^7 cells/mL with PBS, and the cell suspension thus prepared was administered at 0.5 mL (1×10^7 cells) per animal from the tail vein in the same manner as the PDT iv group (PDT-cell iv group, 3 animals). The cells of the remaining one of the three equal parts were suspended in 2.5% FBS/F-12K medium and cultured in a 5% CO2 incubator at 37° C. for 24 hours, and then collected and adjusted to 2×10^7 cells/mL with PBS, and the cell suspension thus prepared was administered at 0.5 mL (1×10^7 cells) per animal from the tail vein in the same manner as other groups (PDT/24 h-cell iv group, 3 animals). Intravenous administration of these PDT-treated cells was performed a total of 3 times (Day−15, −8, −1). […]
The PDT-treated or anti-cancer agent-treated C6 cells were stained with FITC-labeled Annexin V and PI by using the FITC Annexin V Apoptosis Detection Kit I. After that, the rate of dead cells was analyzed with a flow cytometer.

C6 cells [2] = assay: Tumor volume after subcutaneous transplantation of C6 cells in rats given PDT-treated or anti-cancer agent-treated cells intravenously, Example 2; type: in vivo, rat; settings: intravenous administration of treated C6 cells to rats
Experimental: C6 cells were cultured in 2.5% FBS/F-12K medium supplemented with 5-ALA to a final concentration of 1 mM in a 5% CO2 incubator at 37° C. for 24 hours. After the culture, the cells were removed with 0.25% trypsin-EDTA solution, and the collected cells were adjusted to 2×10^7 cells/mL with PBS. The cell suspension thus prepared was injected into a Tygon tube (inner diameter: 0.79 mm), wrapped around a light irradiator (Otsuka Electronics Co., Ltd.), and irradiated with light having a wavelength of 630 nm and an irradiation energy density of 7.5 J/cm^2 (illuminance of 124.5 mW/cm^2 for 1 minute). The treated cells were pooled and the irradiation was repeated until the required dose was obtained. The irradiated cells were divided into three equal parts, and one was administered to F344 rats (8 week-old at the start of study, male, Charles River Laboratories Japan Inc.) at 0.5 mL (1×10^7 cells) per animal from the tail vein under isoflurane anesthesia (PDT iv group, 3 animals). […]
On the 4th, 6th, 8th and 10th days after preparation of the cancer-bearing rats (Day 4, 6, 8, 10), the major axis and the minor axis of the tumor were measured by using a caliper, and the tumor volume was calculated according to the following formula. […]

[3] = subcutaneous administration; had been reported; cited from earlier work

Compound: COc1cccc2c1C(=O)c1c(O)c3c(c(O)c1C2=O)C[C@@](O)(C(=O)CO)C[C@@H]3O[C@H]1C[C@H](N)[C@@H](O)[C@H](C)O1 [EPI, epirubicin hydrochloride]
- living cells (Annexin V−/PI−) (C6 cells [1]): 5%

Compound: COc1cccc2c1C(=O)c1c(O)c3c(c(O)c1C2=O)C[C@@](O)(C(=O)CO)C[C@@H]3O[C@H]1C[C@H](N)[C@H](O)[C@H](C)O1 [DOX, doxorubicin hydrochloride]
- living cells (Annexin V−/PI−) (C6 cells [1]): 5%
- antitumor immunity (C6 cells [2]): not induced
- immunostimulatory effects [3]: immunostimulatory effects

Compound: O=C1c2c(O)ccc(O)c2C(=O)c2c(NCCNCCO)ccc(NCCNCCO)c21 [MTX, mitoxantrone dihydrochloride]
- living cells (Annexin V−/PI−) (C6 cells [1]): 1%
